Seven compounds from patent US3945994A, “Novel acid compounds” (Gist-Brocades N.V., priority 1973, dated 1976) can be followed below.

Holding throughout (assay type): cell-based
In assay [1] the test system is Bacillus subtilis ATCC 6633. The settings on record: ATCC6633, agar serial dilution, 24 hours at 37°C.
Assay [2] concerns Staphylococcus aureus A 321. The following applies: A321, agar serial dilution, 24 hours at 37°C.
The subject of assay [3] is Staphylococcus aureus A 355'. The following applies: agar serial dilution, 24 hours at 37°C.
Assay [4] relates to Staphylococcus aureus A 2000. The following applies: A2000, agar serial dilution, 24 hours at 37°C.
Assay [5] has as its system Staphylococcus aureus A 2001. The settings on record: A2001, agar serial dilution, 24 hours at 37°C.
The subject of assay [6] is Streptococcus haemolyticus A 266. The settings on record: A266, agar serial dilution, 24 hours at 37°C.
The subject of assay [7] is Streptococcus faecalis L 80. The settings on record: Enterococcus faecalis, L80; agar serial dilution, 24 hours at 37°C.
Assay [8] concerns Diplococcus pneumoniae L 54. The following applies: Streptococcus pneumoniae, L54; agar serial dilution, 24 hours at 37°C.
Assay [9] concerns Pasteurella multocida A 723. The settings on record: A723, agar serial dilution, 24 hours at 37°C.
Assay [10] deals with Klebsiella pneumoniae A 809. The settings on record: A809, agar serial dilution, 24 hours at 37°C.
Another assay concerns Salmonella dublin P 43. The following applies: Salmonella enterica, P43; agar serial dilution, 24 hours at 37°C.
In assay [11] the test system is Salmonella typhimurium R 127. The following applies: Salmonella enterica, agar serial dilution, 24 hours at 37°C.
The test system of the next assay is Escherichia coli U 20. The following applies: U20, agar serial dilution, 24 hours at 37°C.
The test system of assay [12] is Pseudomonas aeruginosa H 10. The following applies: H10, agar serial dilution, 24 hours at 37°C.
Assay [13] deals with Pseudomonas aeruginosa 2396. The following applies: agar serial dilution, 24 hours at 37°C.
Assay [14] has as its system Pseudomonas aeruginosa Wyeth A 1058. The following applies: WYETHA1058, agar serial dilution, 24 hours at 37°C.
Assay [15] deals with Proteus rettgeri A 821. The settings on record: Providencia rettgeri, A821; agar serial dilution, 24 hours at 37°C.
The test system of a further assay is Proteus mirabilis H 3. The settings on record: H3, agar serial dilution, 24 hours at 37°C.
The test system of the next assay is Proteus mirabilis A 1200. The following applies: A1200, agar serial dilution, 24 hours at 37°C.
Another assay relates to Proteus morganii 2241. The settings on record: Morganella morganii, agar serial dilution, 24 hours at 37°C.
Assay [16] deals with Salmonella typhimurium R172. The following applies: Salmonella enterica, agar serial dilution, 24 hours at 37°C.
For assay [17], the system named is Haemophilus influenzae A 1030. Nature of the assay: micro serial dilution test, MIC. The following applies: A1030, micro serial dilution (between brackets), 30°C or 37°C, about 18 hours.
Assay [18] concerns Proteus rettgeri A 821. Kind of assay: micro serial dilution test, MIC. The settings on record: Providencia rettgeri, A821; micro serial dilution (between brackets), 30°C or 37°C, about 18 hours.
The test system of assay [19] is Streptococcus haemolyticus A 1088. The settings on record: A1088, agar serial dilution, 24 hours at 37°C.

Values after ≈ are worked out from the molar mass of the structure shown. Read-outs that look alike come from different tables or passages of the source. Bounds are passed on as bounds.

As for `CC1(C)S[C@@H]2[C@H](NC(=O)[C@H](NC(=O)NS(=O)(=O)O)c3ccccc3)C(=O)N2[C@H]1C(=O)O` [XVII, D-6-[α-{3-(sulfo)-ureido}-benzylcarbonamido]-penicillanic acid], the MIC in assay [1] came out at 0.5 µg/mL (≈ 1.06 µM); in assay [2], 3 µg/mL (≈ 6.35 µM); in assay [3], 12.5 µg/mL (≈ 26.5 µM); in [4] it was 12.5 µg/mL (≈ 26.5 µM); in assay [5] it was 12.5 µg/mL (≈ 26.5 µM); in [6], 0.12 µg/mL (≈ 0.254 µM). In addition, the MIC in assay [7] stood at 25 µg/mL (≈ 52.9 µM); in assay [8], 0.25 µg/mL (≈ 0.529 µM); in assay [9], 0.12 µg/mL (≈ 0.254 µM); in assay [10] it was 100 µg/mL (≈ 212 µM); with Salmonella dublin P 43 it was 6 µg/mL (≈ 12.7 µM); in assay [11], 50 µg/mL (≈ 106 µM). In addition, the MIC in the assay with Escherichia coli U 20 was 25 µg/mL (≈ 52.9 µM); in [12], 50 µg/mL (≈ 106 µM); in assay [13], 25 µg/mL (≈ 52.9 µM); in assay [14], 25 µg/mL (≈ 52.9 µM); against Proteus rettgeri A 821 [15], below 0.75 µg/mL; against Proteus mirabilis H 3, below 0.75 µg/mL. Moreover, the results for the MIC against Proteus mirabilis A 1200 and with Proteus morganii 2241 were 3 µg/mL (≈ 6.35 µM) and 50 µg/mL (≈ 106 µM), respectively.
Take `CC(=NS(=O)(=O)N[C@@H](C(=O)N[C@@H]1C(=O)N2[C@@H]1SC(C)(C)[C@@H]2C(=O)O)c1ccccc1)N(C)C` [XXI, D-6-[α-{1-(dimethylamino)-ethylideneamino-sulfonamido}-benzylcarbonamido]-penicillanic acid]: the MIC in [1] came out at 0.12 µg/mL (≈ 0.241 µM); in assay [2], 1.5 µg/mL (≈ 3.01 µM); in [6], 0.12 µg/mL (≈ 0.241 µM); in assay [7], 3 µg/mL (≈ 6.03 µM); in [8], 0.75 µg/mL (≈ 1.51 µM); in assay [9], 0.75 µg/mL (≈ 1.51 µM). The MIC is 100 µg/mL (≈ 201 µM) in assay [10]; 25 µg/mL (≈ 50.2 µM) in the assay with Salmonella dublin P 43; 100 µg/mL (≈ 201 µM) in the assay on Escherichia coli U 20; above 100 µg/mL in assay [12]; 100 µg/mL (≈ 201 µM) in assay [13]; above 100 µg/mL in assay [14]. The MIC in the assay with Proteus mirabilis H 3 stood at 50 µg/mL (≈ 100 µM); with Proteus mirabilis A 1200, 25 µg/mL (≈ 50.2 µM); against Proteus morganii 2241, 25 µg/mL (≈ 50.2 µM); in assay [16], 100 µg/mL (≈ 201 µM); in [17], 1.8 µg/mL (≈ 3.62 µM); against Proteus rettgeri A 821 [18], 0.6 µg/mL (≈ 1.21 µM).
`CN1CCCC1=NS(=O)(=O)N[C@@H](C(=O)N[C@@H]1C(=O)N2[C@@H]1SC(C)(C)[C@@H]2C(=O)O)c1ccccc1` [XXIII, D-6-[α-{1-(methylpyrrolidin-2-ylidene)-amino-sulfonamido}-benzylcarbonamido] -penicillanic acid]: the MIC in assay [1] is 0.12 µg/mL (≈ 0.235 µM); in assay [2], 1 µg/mL (≈ 1.96 µM); in assay [3], 6 µg/mL (≈ 11.8 µM); in assay [4], 6 µg/mL (≈ 11.8 µM); in [5], 3 µg/mL (≈ 5.89 µM); in [6], 0.06 µg/mL (≈ 0.118 µM). Moreover, the MIC was 1.5 µg/mL (≈ 2.94 µM) in [7]; 0.5 µg/mL (≈ 0.981 µM) in assay [8]; 0.5 µg/mL (≈ 0.981 µM) in assay [9]; above 100 µg/mL in assay [10]; 50 µg/mL (≈ 98.1 µM) in the assay on Salmonella dublin P 43; 100 µg/mL (≈ 196 µM) against Escherichia coli U 20. In addition, the MIC in [12] is above 100 µg/mL; in assay [13], above 100 µg/mL; in assay [14] it was above 100 µg/mL; in the assay with Proteus mirabilis H 3, 50 µg/mL (≈ 98.1 µM); against Proteus mirabilis A 1200, 12.5 µg/mL (≈ 24.5 µM); with Proteus morganii 2241, 50 µg/mL (≈ 98.1 µM). The MIC amounted to 100 µg/mL (≈ 196 µM) in [16], 125 µg/mL (≈ 245 µM) in assay [17] and 0.9 µg/mL (≈ 1.77 µM) in the assay on Proteus rettgeri A 821 [18].
Regarding `CC1(C)S[C@@H]2C(NC(=O)C(N)c3ccccc3)C(=O)N2[C@H]1C(=O)O` (stereo partly drawn) [ampicillin, 6-(α-aminophenylacetamido) penicillanic acid, reference compound], the MIC was 0.025 µg/mL (≈ 0.0715 µM) in assay [1]; 0.1 µg/mL (≈ 0.286 µM) in assay [2]; 1.5 µg/mL (≈ 4.29 µM) in assay [3]; 1.5 µg/mL (≈ 4.29 µM) in assay [4]; 0.75 µg/mL (≈ 2.15 µM) in assay [5]; 0.05 µg/mL (≈ 0.143 µM) in [8]. In addition, the MIC in [9] was 0.2 µg/mL (≈ 0.572 µM); in [10], 50 µg/mL (≈ 143 µM); in the assay on Salmonella dublin P 43, 0.8 µg/mL (≈ 2.29 µM); in the assay on Escherichia coli U 20 it was 3 µg/mL (≈ 8.59 µM); in assay [12], above 100 µg/mL; in assay [13], 50 µg/mL (≈ 143 µM). Besides, the MIC in assay [14] was above 100 µg/mL; against Proteus rettgeri A 821 [15], 3 µg/mL (≈ 8.59 µM); against Proteus mirabilis H 3 it was 3 µg/mL (≈ 8.59 µM); against Proteus mirabilis A 1200, 3 µg/mL (≈ 8.59 µM); in assay [16] it was 3 µg/mL (≈ 8.59 µM).
Take `CC(=O)OCC1=C(C(=O)O)N2C(=O)[C@@H](NC(=O)CC#N)[C@H]2SC1` [cephacetril, reference compound]: the MIC in assay [1] was 0.12 µg/mL (≈ 0.354 µM); in assay [2], 0.75 µg/mL (≈ 2.21 µM); in [3] it was 1.5 µg/mL (≈ 4.42 µM); in assay [4] it was 1.5 µg/mL (≈ 4.42 µM); in [5] it was 0.5 µg/mL (≈ 1.47 µM); in assay [7], 12.5 µg/mL (≈ 36.8 µM). Moreover, the MIC in [8] was 0.5 µg/mL (≈ 1.47 µM); in assay [9], 6 µg/mL (≈ 17.7 µM); in assay [10], 6 µg/mL (≈ 17.7 µM); against Salmonella dublin P 43 it was 12.5 µg/mL (≈ 36.8 µM); against Escherichia coli U 20, 6 µg/mL (≈ 17.7 µM); in [12], above 100 µg/mL. In addition, the MIC in assay [13] was above 100 µg/mL; in assay [14], above 100 µg/mL; against Proteus rettgeri A 821 [15], 3 µg/mL (≈ 8.84 µM); with Proteus mirabilis H 3, 12.5 µg/mL (≈ 36.8 µM); in the assay on Proteus mirabilis A 1200 it was 12.5 µg/mL (≈ 36.8 µM); in the assay with Proteus morganii 2241 it was above 100 µg/mL. Moreover, the MIC in assay [19] was determined as 0.5 µg/mL (≈ 1.47 µM); in assay [16] it was 12.5 µg/mL (≈ 36.8 µM); in assay [17], 30 µg/mL (≈ 88.4 µM).
For `CC(=O)OCC1=C(C(=O)O)N2C(=O)[C@@H](NC(=O)[C@H](N)c3ccccc3)[C@H]2SC1` [cephaloglycin, 7-(α-aminophenylacetamido) cephalosporanic acid, reference compound], the MIC in assay [1] was 0.25 µg/mL (≈ 0.617 µM); in [2] it was 12.5 µg/mL (≈ 30.8 µM); in [3], 12.5 µg/mL (≈ 30.8 µM); in assay [4], 12.5 µg/mL (≈ 30.8 µM); in assay [5], 12.5 µg/mL (≈ 30.8 µM); in assay [7], above 100 µg/mL. Besides, the MIC in assay [8] was 6 µg/mL (≈ 14.8 µM); in [9], 50 µg/mL (≈ 123 µM); in [10] it was 6 µg/mL (≈ 14.8 µM); with Salmonella dublin P 43, 12.5 µg/mL (≈ 30.8 µM); with Escherichia coli U 20, 1.5 µg/mL (≈ 3.7 µM); in [12] it was above 100 µg/mL. Further, the MIC is above 100 µg/mL in assay [13]; above 100 µg/mL in assay [14]; 1.5 µg/mL (≈ 3.7 µM) against Proteus rettgeri A 821 [15]; 25 µg/mL (≈ 61.7 µM) with Proteus mirabilis H 3; 12.5 µg/mL (≈ 30.8 µM) against Proteus mirabilis A 1200; 100 µg/mL (≈ 247 µM) against Proteus morganii 2241. Besides, the values for the MIC in assay [19], in [16] and in assay [17] were 0.25 µg/mL (≈ 0.617 µM), 12.5 µg/mL (≈ 30.8 µM) and 125 µg/mL (≈ 308 µM), respectively.
Turning to `Cc1nnc(SCC2=C(C(=O)O)N3C(=O)[C@@H](NC(=O)Cn4cnnn4)[C@H]3SC2)s1` [cephazolin, reference compound], the MIC in assay [1] worked out at 0.25 µg/mL (≈ 0.55 µM); in [2], 0.25 µg/mL (≈ 0.55 µM); in [3] it was 1.5 µg/mL (≈ 3.3 µM); in [4], 0.75 µg/mL (≈ 1.65 µM); in [5], 0.5 µg/mL (≈ 1.1 µM); in assay [7], 12.5 µg/mL (≈ 27.5 µM). Besides, the MIC in assay [8] is 0.25 µg/mL (≈ 0.55 µM); in assay [9], 1.5 µg/mL (≈ 3.3 µM); in assay [10] it was 1.5 µg/mL (≈ 3.3 µM); against Salmonella dublin P 43 it was 1.5 µg/mL (≈ 3.3 µM); against Escherichia coli U 20, 1.5 µg/mL (≈ 3.3 µM); in [12], above 100 µg/mL. Also, the MIC in assay [13] was above 100 µg/mL; in [14], above 100 µg/mL; with Proteus mirabilis H 3, 6 µg/mL (≈ 13.2 µM); against Proteus mirabilis A 1200 it was 6 µg/mL (≈ 13.2 µM); in the assay with Proteus morganii 2241, 25 µg/mL (≈ 55 µM); in assay [19] it was 0.12 µg/mL (≈ 0.264 µM). In addition, the MIC amounted to 3 µg/mL (≈ 6.6 µM) in assay [16] and 1.2 µg/mL (≈ 2.64 µM) against Proteus rettgeri A 821 [18].
